Data published in ChEMBL document CHEMBL2074058, “Regulation by dexamethasone of P-glycoprotein expression in cultured rat hepatocytes” (FEBS Lett, 1993).

Experiments:
[1] = biological target: Multidrug resistance protein 1a (Rattus norvegicus) (UniProt Q6PSM0); test: TP_TRANSPORTER: Northern blot from primary hepatocytes; assay type: functional, cell-based; conditions: Hepatocyte
[2] = biological target: Multidrug resistance protein 1a (Rattus norvegicus) (UniProt Q6PSM0); test: TP_TRANSPORTER: Western blot, primary hepatocytes; assay type: functional, cell-based; conditions: Hepatocyte

Chain of Multidrug resistance protein 1a (Rattus norvegicus) (Q6PSM0 as listed by the source): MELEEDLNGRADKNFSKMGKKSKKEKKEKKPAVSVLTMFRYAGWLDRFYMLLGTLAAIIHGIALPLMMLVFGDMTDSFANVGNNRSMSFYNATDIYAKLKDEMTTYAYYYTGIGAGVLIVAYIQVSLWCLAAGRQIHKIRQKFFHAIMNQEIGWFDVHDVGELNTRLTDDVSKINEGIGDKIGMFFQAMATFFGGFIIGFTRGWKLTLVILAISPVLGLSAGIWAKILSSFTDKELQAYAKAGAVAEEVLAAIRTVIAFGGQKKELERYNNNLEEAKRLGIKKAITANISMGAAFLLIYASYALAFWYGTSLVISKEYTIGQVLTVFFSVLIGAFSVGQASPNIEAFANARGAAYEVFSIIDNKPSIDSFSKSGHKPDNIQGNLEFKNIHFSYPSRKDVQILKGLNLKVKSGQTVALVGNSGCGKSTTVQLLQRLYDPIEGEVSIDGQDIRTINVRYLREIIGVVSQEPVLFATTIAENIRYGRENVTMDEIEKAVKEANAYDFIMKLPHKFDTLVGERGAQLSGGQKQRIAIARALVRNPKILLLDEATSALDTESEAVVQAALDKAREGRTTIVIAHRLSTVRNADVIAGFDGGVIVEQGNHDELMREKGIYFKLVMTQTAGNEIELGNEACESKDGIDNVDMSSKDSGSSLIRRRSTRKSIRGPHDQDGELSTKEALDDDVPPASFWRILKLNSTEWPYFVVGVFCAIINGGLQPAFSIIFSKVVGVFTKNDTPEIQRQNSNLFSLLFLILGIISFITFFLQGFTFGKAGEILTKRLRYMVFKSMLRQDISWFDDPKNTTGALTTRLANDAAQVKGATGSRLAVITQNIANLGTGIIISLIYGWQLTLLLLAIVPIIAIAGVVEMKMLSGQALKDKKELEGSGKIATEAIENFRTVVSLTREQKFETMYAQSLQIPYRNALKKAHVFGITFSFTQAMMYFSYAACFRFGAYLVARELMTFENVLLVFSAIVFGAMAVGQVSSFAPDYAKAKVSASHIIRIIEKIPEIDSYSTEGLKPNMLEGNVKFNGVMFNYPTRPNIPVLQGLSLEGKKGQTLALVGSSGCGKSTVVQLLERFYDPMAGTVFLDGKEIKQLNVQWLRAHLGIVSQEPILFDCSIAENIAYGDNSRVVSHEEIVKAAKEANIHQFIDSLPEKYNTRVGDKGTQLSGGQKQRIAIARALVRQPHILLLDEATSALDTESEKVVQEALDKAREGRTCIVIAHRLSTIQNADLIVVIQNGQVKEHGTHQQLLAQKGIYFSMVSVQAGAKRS

C[C@@H]1C[C@H]2[C@@H]3CCC4=CC(=O)C=C[C@]4(C)[C@@]3(F)[C@@H](O)C[C@]2(C)[C@@]1(O)C(=O)CO
Activity [1]: inducer [Decrease]
Activity [2]: inducer [Decrease]
